Source: US11492335B2, “Aryl or heteroaryl triazolone derivatives or salts thereof, or pharmaceutical compositions comprising the same” (YUHAN CORPORATION, priority 2018, dated 2022)
Structures can show the parent of a compound that is named as a salt.

What was measured:
Type in all cases: biochemical
[1] = target: T1, recombinant human MAO-B (monoamine oxidase-B) (Homo sapiens, UniProt P27338); assay: Activity on recombinant human MAO-B, Amplex Red method, 1 mM benzylamine substrate; conditions: 1 mM benzylamine, read-out: Inhibitory Activity (IC50, nM) MAO-B
T1 construct: purchased Sigma-Aldrich
T1 sequence (P27338 1-520): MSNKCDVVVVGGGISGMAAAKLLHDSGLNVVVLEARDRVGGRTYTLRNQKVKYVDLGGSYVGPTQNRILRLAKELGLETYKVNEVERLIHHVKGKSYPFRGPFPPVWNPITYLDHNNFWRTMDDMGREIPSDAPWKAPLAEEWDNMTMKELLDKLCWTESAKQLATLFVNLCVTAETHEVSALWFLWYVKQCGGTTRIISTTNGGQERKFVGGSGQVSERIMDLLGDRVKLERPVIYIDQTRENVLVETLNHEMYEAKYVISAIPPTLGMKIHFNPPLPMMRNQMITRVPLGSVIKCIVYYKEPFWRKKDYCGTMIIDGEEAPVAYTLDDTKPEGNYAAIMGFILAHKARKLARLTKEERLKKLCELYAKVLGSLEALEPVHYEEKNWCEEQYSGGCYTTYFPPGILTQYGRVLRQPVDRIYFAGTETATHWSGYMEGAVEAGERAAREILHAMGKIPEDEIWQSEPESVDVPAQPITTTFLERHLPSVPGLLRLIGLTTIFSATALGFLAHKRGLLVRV
Summary of the method: (§1)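 Fluorescence (544/590 nm) of resorufin formed from Amplex Red by HRP and enzyme-generated H2O2 was followed over 1-2 h. Substrates were 0.5 mM tyramine for MAO-A and 1 mM benzylamine for MAO-B; compounds were preincubated with enzyme for 30 min at 37° C. IC50 came from four-parameter logistic fitting of signal-rate inhibition.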

recombinant human VAP-1 = target: T2, recombinant human VAP-1 (Homo sapiens, UniProt Q16853); assay: Activity on recombinant human VAP-1, Amplex Red HRP-coupled hydrogen peroxide assay, benzylamine substrate; conditions: recombinant human VAP-1, benzylamine substrate, 30 min preincubation at 37° C.; read-out: Inhibitory Activity (IC50, nM) human VAP-1
T2 construct: purchased R&D systems
T2 sequence (Q16853 1-763): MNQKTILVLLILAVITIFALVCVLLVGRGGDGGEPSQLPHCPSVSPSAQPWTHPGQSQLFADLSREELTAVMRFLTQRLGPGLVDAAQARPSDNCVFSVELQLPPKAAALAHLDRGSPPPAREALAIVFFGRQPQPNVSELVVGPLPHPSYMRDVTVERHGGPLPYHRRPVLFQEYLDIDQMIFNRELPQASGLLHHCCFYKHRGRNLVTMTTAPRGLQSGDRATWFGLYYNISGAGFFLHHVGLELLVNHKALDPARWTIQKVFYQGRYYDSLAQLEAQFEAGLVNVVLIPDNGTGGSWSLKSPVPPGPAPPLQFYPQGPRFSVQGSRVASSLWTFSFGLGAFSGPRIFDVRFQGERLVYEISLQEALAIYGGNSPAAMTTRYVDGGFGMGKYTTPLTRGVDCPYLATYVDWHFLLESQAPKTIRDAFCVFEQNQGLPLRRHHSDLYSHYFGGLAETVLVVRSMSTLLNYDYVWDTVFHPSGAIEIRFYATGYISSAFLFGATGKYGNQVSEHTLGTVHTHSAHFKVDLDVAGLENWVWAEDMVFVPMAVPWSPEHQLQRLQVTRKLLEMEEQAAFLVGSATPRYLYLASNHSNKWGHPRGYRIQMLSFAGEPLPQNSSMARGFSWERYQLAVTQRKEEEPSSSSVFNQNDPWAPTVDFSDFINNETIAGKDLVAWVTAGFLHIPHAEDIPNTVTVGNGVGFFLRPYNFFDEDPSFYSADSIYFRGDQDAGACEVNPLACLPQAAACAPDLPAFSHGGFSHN
Summary of the method: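 Fluorescence of resorufin formed from H2O2 (ex 544 nm, em 590 nm) was tracked for 1-2 h after adding 1 mM benzylamine, 200 uM Amplex Red and 1 U/mL HRP to enzyme pretreated with compound for 30 min at 37 °C. IC50 values derive from four-variable logistic fits.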

[2] = target: T3, recombinant human MAO-A (monoamine oxidase-A) (Homo sapiens, UniProt P21397); assay: Activity on recombinant human MAO-A, Amplex Red method, 0.5 mM tyramine substrate; conditions: 0.5 mM tyramine, read-out: Inhibitory Activity (IC50, nM) MAO-A
T3 construct: purchased Sigma-Aldrich
T3 sequence (P21397 1-527): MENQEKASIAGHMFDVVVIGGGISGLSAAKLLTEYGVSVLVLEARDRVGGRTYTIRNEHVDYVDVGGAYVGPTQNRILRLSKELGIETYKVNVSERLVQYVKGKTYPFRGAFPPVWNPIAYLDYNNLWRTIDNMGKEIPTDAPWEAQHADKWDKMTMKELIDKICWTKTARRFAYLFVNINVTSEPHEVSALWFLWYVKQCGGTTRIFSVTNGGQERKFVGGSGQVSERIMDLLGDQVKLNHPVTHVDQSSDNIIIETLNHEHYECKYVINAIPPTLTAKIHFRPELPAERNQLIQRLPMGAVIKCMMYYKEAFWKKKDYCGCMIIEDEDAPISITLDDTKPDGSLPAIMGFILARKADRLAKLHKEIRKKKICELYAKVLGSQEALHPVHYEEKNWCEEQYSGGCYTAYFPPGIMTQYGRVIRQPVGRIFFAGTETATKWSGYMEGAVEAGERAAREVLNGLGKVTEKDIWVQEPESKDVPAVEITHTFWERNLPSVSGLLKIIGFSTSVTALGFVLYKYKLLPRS
Summary of the method: as §1

[3] = target: T4, recombinant human DAO (diamine oxidase) (Homo sapiens, UniProt P19801); assay: Activity on recombinant human DAO, Amplex Red method, 1 mM putrescine substrate; conditions: recombinant human DAO, 1 mM putrescine; * = between 10 and 100 nM, ** = between 300 and 1000 nM; read-out: Inhibitory Activity (IC50, nM) DAO
T4 construct: purchased R&D systems
T4 sequence (P19801 20-751): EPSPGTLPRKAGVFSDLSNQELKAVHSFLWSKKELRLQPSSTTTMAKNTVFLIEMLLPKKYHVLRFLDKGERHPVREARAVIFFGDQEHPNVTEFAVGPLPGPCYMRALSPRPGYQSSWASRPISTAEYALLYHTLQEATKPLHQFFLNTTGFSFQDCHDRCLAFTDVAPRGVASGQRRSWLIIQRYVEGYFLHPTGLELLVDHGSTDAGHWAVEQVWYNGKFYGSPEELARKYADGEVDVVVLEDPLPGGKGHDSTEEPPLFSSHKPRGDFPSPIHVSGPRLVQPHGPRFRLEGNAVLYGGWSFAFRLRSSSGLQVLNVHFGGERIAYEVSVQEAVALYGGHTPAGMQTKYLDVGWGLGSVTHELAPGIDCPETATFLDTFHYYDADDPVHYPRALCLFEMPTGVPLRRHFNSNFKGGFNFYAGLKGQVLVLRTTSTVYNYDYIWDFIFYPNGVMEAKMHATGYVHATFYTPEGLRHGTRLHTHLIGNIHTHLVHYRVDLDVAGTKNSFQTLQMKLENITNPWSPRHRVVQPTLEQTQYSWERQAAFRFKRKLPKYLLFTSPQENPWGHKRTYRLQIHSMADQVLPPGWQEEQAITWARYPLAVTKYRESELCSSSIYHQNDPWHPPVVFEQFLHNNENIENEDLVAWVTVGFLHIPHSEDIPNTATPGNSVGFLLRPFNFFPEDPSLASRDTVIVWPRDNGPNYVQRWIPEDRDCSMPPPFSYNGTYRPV
Summary of the method: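 Inhibition of recombinant human DAO (diamine oxidase, R&D systems) was assessed with the Amplex Red Hydrogen Peroxide Assay Kit. Hydrogen peroxide produced from 1 mM putrescine was detected through an HRP-coupled reaction that converts Amplex Red into fluorescent resorufin, read at 544 nm excitation and 590 nm emission. IC50 values came from four-parameter logistic fits in GraphPad Prism.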

Row | SMILES | IC50 [1] [nM] | IC50 (recombinant human VAP-1) [nM] | IC50 [2] [nM] | IC50 [3] [nM]
1 | Cc1cc(-c2ccc(-c3ncon3)cc2)cnc1-n1cnn(C/C(=C/F)CN)c1=O [Example 139, 2-[(2E)-2-(aminomethyl)-3-fluoroprop-2-en-1-yl]-4-{3-methyl-5-[4-(1,2,4-oxadiazol-3-yl)phenyl]pyridin-2-yl}-2,4-dihydro-3H-1,2,4-triazol-3-one] | 394 | 0.53 | > 100000 | 370
2 | Cc1cc(-c2cccc(-c3ncon3)c2)cnc1-n1cnn(C/C(=C/F)CN)c1=O [Example 140, 2-[(2E)-2-(aminomethyl)-3-fluoroprop-2-en-1-yl]-4-{3-methyl-5-[3-(1,2,4-oxadiazol-3-yl)phenyl]pyridin-2-yl}-2,4-dihydro-3H-1,2,4-triazol-3-one] | 3100 | 0.79 | 3400 | 13000
3 | Cc1cc(-c2ccc(-c3noc(C4CC4)n3)cc2)cnc1-n1cnn(C/C(=C/F)CN)c1=O [Example 141, 2-[(2E)-2-(aminomethyl)-3-fluoroprop-2-en-1-yl]-4-{5-[4-(5-cyclopropyl-1,2,4-oxadiazol-3-yl)phenyl]-3-methylpyridin-2-yl}-2,4-dihydro-3H-1,2,4-triazol-3-one hydrochloride] | 7090 | 0.88 | > 100000 | 110
4 | Cc1cc(-c2ccc(-c3noc(C(C)C)n3)cc2)cnc1-n1cnn(C/C(=C/F)CN)c1=O [Example 142, 2-[(2E)-2-(aminomethyl)-3-fluoroprop-2-en-1-yl]-4-(3-methyl-5-{4-[5-(propan-2-yl)-1,2,4-oxadiazol-3-yl]phenyl}pyridin-2-yl)-2,4-dihydro-3H-1,2,4-triazol-3-one hydrochloride] | 4720 | 0.63 | > 100000 | 57
5 | Cc1cc(-c2cccc(-c3noc(C(C)C)n3)c2)cnc1-n1cnn(C/C(=C/F)CN)c1=O [Example 143, 2-[(2E)-2-(aminomethyl)-3-fluoroprop-2-en-1-yl]-4-(3-methyl-5-{3-[5-(propan-2-yl)-1,2,4-oxadiazol-3-yl]phenyl}pyridin-2-yl)-2,4-dihydro-3H-1,2,4-triazol-3-one hydrochloride] | 5340 | 0.43 | 112000 | 12
6 | Cc1cc(-c2ccc(N3CCNCC3)cc2)cnc1-n1cnn(C/C(=C/F)CN)c1=O [Example 145, 2-[(2E)-2-(aminomethyl)-3-fluoroprop-2-en-1-yl]-4-{3-methyl-5-[4-(piperazin-1-yl)phenyl]pyridin-2-yl}-2,4-dihydro-3H-1,2,4-triazol-3-one hydrochloride] | > 10000 | 0.9 | > 100000 | 13000
7 | Cc1cc(-c2ccc(C(=O)N3CCOCC3)cc2)cnc1-n1cnn(C/C(=C/F)CN)c1=O [Example 146, 2-[(2E)-2-(aminomethyl)-3-fluoroprop-2-en-1-yl]-4-{3-methyl-5-[4-(morpholin-4-ylcarbonyl)phenyl]pyridin-2-yl}-2,4-dihydro-3H-1,2,4-triazol-3-one hydrochloride] | > 10000 | 0.7 | > 100000 | 17000
8 | CC(=O)Nc1cc(-c2cnc(-n3cnn(C/C(=C/F)CN)c3=O)c(C)c2)ccn1 [Example 147, (E)-N-(6-(1-(2-(aminomethyl)-3-fluoroallyl)-5-oxo-1,5-dihydro-4H-1,2,4-triazol-4-yl)-5-methyl-[3,4′-bipyridin]-2′-yl)acetamide hydrochloride] | > 10000 | 0.55 | > 10000 | 450
9 | Cc1cc(-c2ccc(C(F)(F)F)nc2)cnc1-n1cnn(C/C(=C/F)CN)c1=O [Example 148, 2-[(2E)-2-(aminomethyl)-3-fluoroprop-2-en-1-yl]-4-[5-methyl-6′-(trifluoromethyl)-3,3′-bipyridin-6-yl]-2,4-dihydro-3H-1,2,4-triazol-3-one hydrochloride] | > 10000 | 0.4 | 160000 | 35
10 | Cc1cc(-c2ccc(N3CCOCC3)nc2)cnc1-n1cnn(C/C(=C/F)CN)c1=O [Example 149, 2-[(2E)-2-(aminomethyl)-3-fluoroprop-2-en-1-yl]-4-[5-methyl-6′-(morpholin-4-yl)-3,3′-bipyridin-6-yl]-2,4-dihydro-3H-1,2,4-triazol-3-one hydrochloride] | > 10000 | 0.5 | > 100000 | 490
11 | Cc1cc(-c2ccc3c(c2)OCO3)cnc1-n1cnn(C/C(=C/F)CN)c1=O [Example 150, 2-[(2E)-2-(aminomethyl)-3-fluoroprop-2-en-1-yl]-4-[5-(2H-1,3-benzodioxol-5-yl)-3-methylpyridin-2-yl]-2,4-dihydro-3H-1,2,4-triazol-3-one hydrochloride] | 170 | 0.35 | 4800 | 480
